Legend:
Mus musculus [1] = assay: Antidepressant-like activity in Swiss albino mouse assessed as reduction of immobility time at 100 mg/kg, ip measured last 4 mins for 6 mins test by tail suspension test (reference value: 116.4 +/- 4.6 sec); type: functional; conditions: route intraperitoneal
Mus musculus [2] = assay: Antidepressant-like activity in Swiss albino mouse assessed as effect on climbing time at 100 mg/kg, ip after 24 hrs measured for 5 mins by modified forced swimming test (reference value: 56.8 +/- 2.6 sec); type: functional; conditions: route intraperitoneal
Mus musculus [3] = assay: Antidepressant-like activity in Swiss albino mouse assessed as effect on swimming time at 100 mg/kg, ip after 24 hrs measured for 5 mins by modified forced swimming test (reference value: 95 +/- 9.7 sec); type: functional; conditions: route intraperitoneal
Mus musculus [4] = assay: Antidepressant-like activity in Swiss albino mouse assessed as effect on immobility time at 100 mg/kg, ip after 24 hrs measured for 5 mins by modified forced swimming test (reference value: 102.2 +/- 7.5 sec); type: functional; conditions: route intraperitoneal
Mus musculus [5] = assay: Neurotoxicity in Swiss albino mouse assessed as effect on motor coordination at 100 mg/kg, ip by rotarod test; type: toxicity, organism-based; set-up: dose 100 mg/kg, route intraperitoneal; conditions: in vivo
Mus musculus [6] = assay: Antidepressant-like activity in Swiss albino mouse assessed as reduction of immobility time at 10 mg/kg, ip measured last 4 mins for 6 mins test by tail suspension test (reference value: 116.4 +/- 4.6 sec); type: functional; conditions: route intraperitoneal
Mus musculus [7] = assay: Antidepressant-like activity in Swiss albino mouse assessed as effect on climbing time at 10 mg/kg, ip after 24 hrs measured for 5 mins by modified forced swimming test (reference value: 56.8 +/- 2.6 sec); type: functional; conditions: route intraperitoneal
Mus musculus [8] = assay: Antidepressant-like activity in Swiss albino mouse assessed as effect on swimming time at 10 mg/kg, ip after 24 hrs measured for 5 mins by modified forced swimming test (reference value: 95 +/- 9.7 sec); type: functional; conditions: route intraperitoneal
Mus musculus [9] = assay: Antidepressant-like activity in Swiss albino mouse assessed as effect on immobility time at 10 mg/kg, ip after 24 hrs measured for 5 mins by modified forced swimming test (reference value: 102.2 +/- 7.5 sec); type: functional; conditions: route intraperitoneal

| SMILES | Time (Mus musculus [1]) [s] | Time (Mus musculus [2]) [s] | Time (Mus musculus [3]) [s] | Time (Mus musculus [4]) [s] | Activity (Mus musculus [5]) | Time (Mus musculus [6]) [s] | Time (Mus musculus [7]) [s] | Time (Mus musculus [8]) [s] | Time (Mus musculus [9]) [s] |
| --- | --- | --- | --- | --- | --- | --- | --- | --- | --- |
| Nn1c(CCc2ccc(O)cc2)nnc1SCC(=O)N1N=C(c2cccs2)CC1c1ccc2c(c1)OCO2 (centres undefined) | 96.1 | 54.1 | 144.7 | 69.9 | Non-toxic | – | – | – | – |
| Nn1c(CCc2ccc(O)cc2)nnc1SCC(=O)N1N=C(c2cccs2)CC1c1ccccc1 (centres undefined) | 69 | 43.3 | 191.8 | 33.3 | Non-toxic | – | – | – | – |
| Nn1c(CCc2ccc(O)cc2)nnc1SCC(=O)N1N=C(c2cccs2)CC1c1ccc(F)cc1 (centres undefined) | 78.8 | 48.8 | 153.3 | 52.5 | Non-toxic | – | – | – | – |
| Nn1c(CCc2ccc(O)cc2)nnc1SCC(=O)N1N=C(c2cccs2)CC1c1ccc(Cl)cc1 (centres undefined) | 72.1 | 45 | 193.7 | 40.5 | Non-toxic | – | – | – | – |
| Cc1ccc(C2CC(c3cccs3)=NN2C(=O)CSc2nnc(CCc3ccc(O)cc3)n2N)cc1 (centres undefined) | 85.9 | 54.4 | 147.8 | 58.4 | Non-toxic | – | – | – | – |
| CN(C)c1ccc(C2CC(c3cccs3)=NN2C(=O)CSc2nnc(CCc3ccc(O)cc3)n2N)cc1 (centres undefined) | 93.5 | 53.5 | 140 | 66.2 | Non-toxic | – | – | – | – |
| CNCCC(Oc1ccc(C(F)(F)F)cc1)c1ccccc1 (centres undefined) [FLUOXETINE] | – | – | – | – | – | 90.6 | 47.8 | 148.5 | 67.6 |

— ChEMBL document CHEMBL1240441, “New pyrazoline derivatives and their antidepressant activity” (Eur J Med Chem, 2010)
